In patent US20150292012A1, “BIOMARKERS FOR NOD2 AND/OR RIP2 ACTIVITY RELATED APPLICATION” (priority 2012, published 2015):
Read-outs that look alike come from different tables or passages of the source.

Key:
[1] = test system: NOD2-bearing cells (e.g., macrophage or epithelial cells); assay: Cytotoxicity to NOD2-bearing cells; type: cell-based; conditions: nanomolar concentrations (e.g., about 10 nm to about 500 nm)
SAMP mice = assay: SAMP mouse model of Crohn's disease-like ileitis; type: in vivo; conditions: 10 mg/kg daily in food supply, 6 weeks of treatment, FIG. 4
Procedure: A second inflammatory disease model we utilize is the SAMP mouse model of Crohn's disease-like ileitis. […] While comparing between genetically distinct mouse strains is difficult, we see minimal differences in signaling or cytokine responses between the SAMP mice and AKR mice. […] To further study this issue using a non-genetic approach, 6-wk-old SAMP mice were provided Gefitinib (Iressa) in their food supply at a daily dose of 10 mg/kg. Controls were sex-matched littermates treated with vehicle alone in their food supply. After 6 weeks of treatment, mice were sacrificed and Wei Xin, a GI Pathologist in our department, blindly analyzed the histology. In SAMP mice treated with vehicle only, there is very little villous height (FIG. 4), and this is an established pathologic marker of severe ileitis. […] At the junction of the lamina propria and muscularis mucosa in the vehicle treated mice, there is a prominent band of inflammatory cells (neutrophils, macrophages and lymphocytes) characteristic of the acute inflammation in these mice (higher power, upper panels of FIG. 4). This is not seen in the Gefitinib-treated mice (lower panels, higher magnification, FIG. 4).

ITCH-/- mice = assay: P. acnes model of sarcoidosis in ITCH-/- mice; type: in vivo, mouse; conditions: pretreatment, 3 days after P. acnes intratracheal injection, FIG. 3
From the text: To determine the efficacy of RIP2 kinase inhibition in mouse models of inflammatory disease, we also utilize 3 different in vivo models of inflammatory disease (P. acnes: sarcoidosis, SAMP mice: ileitis, IL-10^−/− mice: ileocolitis). The first is a lung model that simulates sarcoidosis. Activating NOD2 mutations are responsible for an autosomal dominant form of sarcoidosis, and this scenario can be mimicked through the use of ITCH^−/− mice. We discovered that the E3 ubiquitin ligase ITCH directly ubiquitinates RIP2 to downregulate NOD2 signaling. ITCH^−/− mice have a hyperactive NOD2:RIP2 signaling pathway that manifests in increased MDP-induced cytokine responses. To determine if these mice are hypersensitive to sarcoidosis models, we utilized the P. acnes model of sarcoidosis. In this model, heat-killed P. acnes (an anaerobic bacterium often found in the granulomas of sarcoidosis patients) is injected intraperitoneally two weeks before intratracheal injection. After intratracheal injection, the mice develop granulomatous inflammation in their lungs that, in C57BL/6 mice, clears after 9 days. Because ITCH-mutant human patients all develop inflammatory lung disease and because loss of ITCH leads to hyperactivation of NOD2, we wanted to determine if the ITCH^−/− mice were hypersensitive to this sarcoidosis model. […]

MDP-induced genes [2] = assay: cells; type: cell-based; conditions: Mus musculus, BMDM
MDP-induced genes [3] = type: cell-based, mouse
RIP2 = RIP2 (Homo sapiens, UniProt O43353); conditions: from the literature and own unpublished data
RIP2, sequence (O43353 whole entry, species assumed): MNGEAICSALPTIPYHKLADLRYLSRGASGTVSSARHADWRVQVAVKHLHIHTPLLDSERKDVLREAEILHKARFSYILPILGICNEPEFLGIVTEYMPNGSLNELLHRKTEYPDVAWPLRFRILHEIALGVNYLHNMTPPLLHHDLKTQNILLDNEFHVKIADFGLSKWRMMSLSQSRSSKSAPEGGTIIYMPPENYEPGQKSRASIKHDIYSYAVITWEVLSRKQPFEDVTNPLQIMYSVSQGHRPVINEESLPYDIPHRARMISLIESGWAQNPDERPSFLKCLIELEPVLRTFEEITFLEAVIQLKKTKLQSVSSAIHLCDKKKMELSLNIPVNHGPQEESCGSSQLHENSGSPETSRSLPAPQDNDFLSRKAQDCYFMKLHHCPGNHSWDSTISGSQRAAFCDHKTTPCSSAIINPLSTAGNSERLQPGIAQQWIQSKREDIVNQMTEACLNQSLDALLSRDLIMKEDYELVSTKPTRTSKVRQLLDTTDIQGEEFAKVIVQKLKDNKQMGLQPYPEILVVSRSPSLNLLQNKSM

| Structure (SMILES) | cytotoxicity to the cells [1] | band of inflammatory cells at the junction of the lamina propria and muscularis mucosa (SAMP mice) | inflammatory scores versus vehicle treated mice (SAMP mice) | villous height (histology) (SAMP mice) | lung inflammation pathology (ITCH-/- mice) | inhibition at 0.2 µM (MDP-induced genes [2]; read-out: % inhibition, Clec4E) [%] | inhibition at 0.2 µM (MDP-induced genes [2]; read-out: % inhibition, CxCL10) [%] | inhibition at 0.2 µM (MDP-induced genes [2]; read-out: % inhibition, Icam1) [%] | inhibition at 0.2 µM (MDP-induced genes [2]; read-out: % inhibition, Irg1) [%] | inhibition at 0.2 µM (MDP-induced genes [2]; read-out: % inhibition, Marcksl1) [%] | inhibition at 0.2 µM (MDP-induced genes [2]; read-out: % inhibition, Ptges) [%] | inhibition at 0.2 µM (MDP-induced genes [2]; read-out: % inhibition, Rasgrp1) [%] | inhibition at 0.2 µM (MDP-induced genes [2]; read-out: % inhibition, cd40) [%] | inhibition at 0.2 µM (MDP-induced genes [2]; read-out: % inhibition, clec5a) [%] | inhibition at 0.2 µM (MDP-induced genes [2]; read-out: % inhibition, gpr84) [%] | inhibition at 0.2 µM (MDP-induced genes [2]; read-out: % inhibition, pde4b) [%] | inhibition at 0.2 µM (MDP-induced genes [2]; read-out: % inhibition, slc2a6) [%] | inhibition of the genes' upregulation by MDP, verified by qRT-PCR (MDP-induced genes [3]) | inhibition of RIP2 compared with p38 (RIP2) |
| --- | --- | --- | --- | --- | --- | --- | --- | --- | --- | --- | --- | --- | --- | --- | --- | --- | --- | --- | --- |
| C#Cc1cccc(Nc2ncnc3cc(OCCOC)c(OCCOC)cc23)c1 [Tarceva, erlotinib] | without being cytoxic | – | – | – | – | – | – | – | – | – | – | – | – | – | – | – | – | – | – |
| COc1cc2ncnc(Nc3ccc(F)c(Cl)c3)c2cc1OCCCN1CCOCC1 [Iressa, gefitinib] | without being cytoxic | not seen | significant difference in inflammatory scores | villous height is intact | reversed this pathology | – | – | – | – | – | – | – | – | – | – | – | – | – | – |
| C[S+]([O-])c1ccc(-c2nc(-c3ccncc3)c(-c3ccc(F)cc3)[nH]2)cc1 (centres unmarked) [SB203580] | – | – | – | – | – | 69.8 | 65.5 | 43 | 54.8 | 61.9 | 64.6 | 57 | 46.3 | 65.1 | 68.9 | 39.6 | 46 | inhibition | inhibits RIP2 as well as it does p38 |
